These results are taken from publication PMC12549899 (Nature Communications, 2025).

The assay addresses T1, DrOTOP1 G130W/A274W (Danio rerio, UniProt Q7ZWK8, A274W/G130W).
T1 construct: A previously generated codon-optimized full-length DrOTOP1[8]; (UniProt: Q7ZWK8) construct; expressed in transfected cells; host or cells: HEK-293 (CRL-1573, ATCC)
T1 sequence (Q7ZWK8 1-586 G130W/A274W): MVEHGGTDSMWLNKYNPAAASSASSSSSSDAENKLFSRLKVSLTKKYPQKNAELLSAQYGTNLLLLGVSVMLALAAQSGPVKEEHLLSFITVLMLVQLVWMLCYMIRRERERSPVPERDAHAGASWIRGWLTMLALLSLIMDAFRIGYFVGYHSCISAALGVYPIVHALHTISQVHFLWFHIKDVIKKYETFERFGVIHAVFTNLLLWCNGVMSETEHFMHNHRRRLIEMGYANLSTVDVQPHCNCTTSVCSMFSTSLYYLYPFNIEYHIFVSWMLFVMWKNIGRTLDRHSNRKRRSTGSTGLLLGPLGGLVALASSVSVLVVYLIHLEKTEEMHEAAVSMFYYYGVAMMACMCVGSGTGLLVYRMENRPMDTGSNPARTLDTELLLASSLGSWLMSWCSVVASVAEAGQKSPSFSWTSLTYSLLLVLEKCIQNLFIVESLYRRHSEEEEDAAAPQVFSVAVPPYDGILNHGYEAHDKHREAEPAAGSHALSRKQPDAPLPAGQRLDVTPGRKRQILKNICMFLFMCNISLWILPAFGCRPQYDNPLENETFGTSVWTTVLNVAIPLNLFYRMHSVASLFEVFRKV
The experiment in a line: Whole-cell patch-clamp, inhibition of acid-evoked currents, DrOTOP1 G130W/A274W. The class given is cell-based, zebrafish (Danio rerio). Here is the method: Given our limited success in identifying mutations of the central site that disrupt antagonism by C2.2, we tested whether mutations of the central site in a background of G130W (the most impactful outer site mutation) might unmask contributions of this site. Thus, we generated and tested double mutants of G130W with E384A, A274W, and A388W. […] We also measured the dose-dependence of inhibition by C2.2 for both G130W/A388W and G130W/E384A (Fig. 5I, J). […] G130W was tested in parallel to confirm that 100 and 300 μM C2.2 produced dose-dependent inhibition.
HEK-293 cells (CRL-1573, ATCC) were cultured in DMEM (Thermofisher 11995073) containing 10% fetal bovine serum (Life Technology 16000044) and Penicillin-Streptomycin (100 I.U./mL) and (100 µg/mL), respectively. Cells were transfected with WT DrOTOP1 or mutant DrOTOP1 channels in 35 mm petri dishes, with ~ 500 ng DNA and 2 μL TransIT-LT1 transfection reagent (Mirus Bio Corporation, Cat # MIR2300) following the manufacturer’s protocol. […]
Whole-cell patch-clamp recording was performed as previously described[6],[22],[25]. Recordings were made with an Axopatch 200B amplifier, digitized with a Digidata 1322a 16-bit data acquisition system, acquired with pClamp 8.2 and analyzed with Clampfit 10 (Molecular Devices). […]
All data are presented as mean ± SEM unless otherwise noted, and each data point represents an independent replicant. Inhibition of compounds was quantified as ((I2peak-I1)/(I2peak))*100, where I1 is the current immediately before wash-off and I2peak is the maximum recovered current (Supplementary Fig. 2). Hill coefficients were determined by the following equation: Y = Bmax*X^h/(Kd^h + X^h). Absolute IC50 was determined by the following equation: Fifty = (Top + Baseline)/2 Y = Bottom + (Top-Bottom)/(1 + ((Top-Bottom)/(Fifty-Bottom) − 1)*(AbsoluteIC50/X)^HillSlope). pH50 curves (Fig. 6G inset) were determined using the following equation: Y = Bottom + (Top-Bottom)/(1 + (EC/X)^HillSlope) where EC = EC50 control. […]

Where “and” joins values, the source holds several entries; their conditions need not be identical. Equal entries are not always repeated.

On to `C=C(C)COc1ccccc1NC(=O)c1nc[nH]c1C` [C2.2], for which at 10 µM the inhibition (10 µM, single cells or mean) was 8.49%.
In the case of `O=C(/C(=N\O)c1ccccc1)c1ccccc1` [C11, benzil monoxime], where the note is “100 µM, single cells”, the Inhibition of currents is 67.5079% and 70.0684% and 78.866% and 74.4022%; the inhibition – broadly, how much of the control response was suppressed – at 100 µM turned out to be 67.5%.
